Experimental findings from publication PMC5218480 (PLoS ONE, 2017) are described below.

The subject of the test is MV-4-11 cells. Briefly: Gene expression microarray analysis (Affymetrix PrimeView) and GSEA. Set-up: RFU PODN (11730768_x_at) / Fold change /veh PODN (11730768_x_at) / RFU LINC00158 (11744669_a_at) / Fold change /veh LINC00158 (11744669_a_at) / RFU DUSP10 (11751237_a_at) / Fold change /veh DUSP10 (11751237_a_at) / RFU ID3 (11757404_x_at) / Fold change /veh ID3 (11757404_x_at) / RFU PLEKHG5 (11737974_s_at) / Fold change /veh PLEKHG5 (11737974_s_at) / RFU LRRC4B (11730491_at) / Fold change /veh LRRC4B (11730491_at) / RFU GIMAP4 (11747438_a_at) / Fold change /veh GIMAP4 (11747438_a_at) / RFU KRT8 (11758183_x_at) / Fold change /veh KRT8 (11758183_x_at) / RFU CNN1 (11734310_a_at) / Fold change /veh CNN1 (11734310_a_at) / RFU VPS37D (11726825_at) / Fold change /veh VPS37D (11726825_at) / RFU C10orf10 (11716522_x_at) / Fold change /veh C10orf10 (11716522_x_at) / RFU KIR2DL2 /// KIR2DL4 /// KIR2DL5A /// KIR2DL5B /// KIR2DS1 /// KIR2DS2 /// KIR2DS3 /// KIR2DS4 /// KIR3DL3 /// KIR3DL3 /// KIR3DS1 (11738374_at) / Fold change /veh KIR2DL2 /// KIR2DL4 /// KIR2DL5A /// KIR2DL5B /// KIR2DS1 /// KIR2DS2 /// KIR2DS3 /// KIR2DS4 /// KIR3DL3 /// KIR3DL3 /// KIR3DS1 (11738374_at) / RFU C1QL1 (11718748_at) / Fold change /veh C1QL1 (11718748_at) / RFU TMPRSS4 (11747572_a_at) / Fold change /veh TMPRSS4 (11747572_a_at) / RFU HAMP (11756126_x_at) / Fold change /veh HAMP (11756126_x_at) / RFU RNFT2 (11725882_a_at) / Fold change /veh RNFT2 (11725882_a_at) / RFU NR4A2 (11747474_a_at) / Fold change /veh NR4A2 (11747474_a_at) / RFU ABCC12 (11746883_a_at) / Fold change /veh ABCC12 (11746883_a_at) / RFU TMEM136 (11760407_x_at) / Fold change /veh TMEM136 (11760407_x_at) / RFU CLDN22 /// WWC2 (11732394_at) / Fold change /veh CLDN22 /// WWC2 (11732394_at) / RFU HLA-DPB1 (11760878_x_at) / Fold change /veh HLA-DPB1 (11760878_x_at) / RFU SPINT1 (11716480_a_at) / Fold change /veh SPINT1 (11716480_a_at) / RFU GAP43 (11754022_s_at) / Fold change /veh GAP43 (11754022_s_at) / RFU A4GNT (11735810_at) / Fold change /veh A4GNT (11735810_at) / RFU PRB3 (11715151_x_at) / Fold change /veh PRB3 (11715151_x_at) / RFU TUBB4B (11761932_at) / Fold change /veh TUBB4B (11761932_at) / RFU CAPN14 (11732068_a_at) / Fold change /veh CAPN14 (11732068_a_at) / RFU TMCC2 (11721928_a_at) / Fold change /veh TMCC2 (11721928_a_at) / RFU IRGQ (11745062_a_at) / Fold change /veh IRGQ (11745062_a_at) / RFU FAM174B (11720279_a_at) / Fold change /veh FAM174B (11720279_a_at) / RFU TMPRSS4 (11748680_a_at) / Fold change /veh TMPRSS4 (11748680_a_at) / RFU FAM212B (11763350_a_at) / Fold change /veh FAM212B (11763350_a_at) / RFU PLEKHG5 (11743358_a_at) / Fold change /veh PLEKHG5 (11743358_a_at) / RFU ZSCAN30 (11745921_a_at) / Fold change /veh ZSCAN30 (11745921_a_at) / RFU CMKLR1 (11741424_a_at) / Fold change /veh CMKLR1 (11741424_a_at) / RFU LOC101060620 /// MAPK8IP1 (11723275_at) / Fold change /veh LOC101060620 /// MAPK8IP1 (11723275_at) / RFU SPTSSB (11747773_x_at) / Fold change /veh SPTSSB (11747773_x_at) / RFU PRSS12 (11739890_at) / Fold change /veh PRSS12 (11739890_at) / RFU BIN1 (11741810_x_at) / Fold change /veh BIN1 (11741810_x_at) / RFU WNT11 (11732464_a_at) / Fold change /veh WNT11 (11732464_a_at) / RFU C10orf10 (11716521_a_at) / Fold change /veh C10orf10 (11716521_a_at) / RFU C5orf56 (11738089_at) / Fold change /veh C5orf56 (11738089_at) / RFU CYB561 (11721691_x_at) / Fold change /veh CYB561 (11721691_x_at) / RFU ANKRD19P (11752326_a_at) / Fold change /veh ANKRD19P (11752326_a_at) / RFU OR2T12 /// OR2T33 /// OR2T8 (11738714_s_at) / Fold change /veh OR2T12 /// OR2T33 /// OR2T8 (11738714_s_at) / RFU VCAN (11748164_a_at) / Fold change /veh VCAN (11748164_a_at) / RFU JSRP1 (11732532_at) / Fold change /veh JSRP1 (11732532_at) / RFU KRTAP10-11 (11738290_x_at) / Fold change /veh KRTAP10-11 (11738290_x_at) / RFU MYO3A (11730013_a_at) / Fold change /veh MYO3A (11730013_a_at) / RFU EBF3 (11725865_a_at) / Fold change /veh EBF3 (11725865_a_at) / RFU CAMK2N1 (11719241_x_at) / Fold change /veh CAMK2N1 (11719241_x_at) / RFU C5orf56 (11738088_a_at) / Fold change /veh C5orf56 (11738088_a_at) / RFU OLFML3 (11715873_a_at) / Fold change /veh OLFML3 (11715873_a_at) / RFU LOC100653217 /// NTM (11731650_a_at) / Fold change /veh LOC100653217 /// NTM (11731650_a_at) / RFU MAPK11 (11762145_a_at) / Fold change /veh MAPK11 (11762145_a_at) / RFU FIZ1 (11724087_x_at) / Fold change /veh FIZ1 (11724087_x_at) / RFU OASL (11726364_x_at) / Fold change /veh OASL (11726364_x_at) / RFU SOX15 (11748057_x_at) / Fold change /veh SOX15 (11748057_x_at) / RFU CD79A (11719716_a_at) / Fold change /veh CD79A (11719716_a_at) / RFU HIST1H1D (11736915_at) / Fold change /veh HIST1H1D (11736915_at) / RFU CASKIN2 (11723855_a_at) / Fold change /veh CASKIN2 (11723855_a_at) / RFU LOC730098 (11760151_x_at) / Fold change /veh LOC730098 (11760151_x_at) / RFU OR4N2 (11742367_at) / Fold change /veh OR4N2 (11742367_at) / RFU PRRT2 (11749266_a_at) / Fold change /veh PRRT2 (11749266_a_at) / RFU SNX32 (11753110_a_at) / Fold change /veh SNX32 (11753110_a_at) / RFU CDHR5 (11726645_a_at) / Fold change /veh CDHR5 (11726645_a_at) / RFU RCAN1 (11760418_a_at) / Fold change /veh RCAN1 (11760418_a_at) / RFU FAM167A (11723789_a_at) / Fold change /veh FAM167A (11723789_a_at) / RFU FAM26E (11764081_at) / Fold change /veh FAM26E (11764081_at) / RFU ISYNA1 (11749810_s_at) / Fold change /veh ISYNA1 (11749810_s_at) / RFU ACY1 (11761880_at) / Fold change /veh ACY1 (11761880_at) / RFU 11764098_at / Fold change /veh 11764098_at / RFU SAMD14 (11745864_x_at) / Fold change /veh SAMD14 (11745864_x_at) / RFU NPB (11741838_a_at) / Fold change /veh NPB (11741838_a_at) / RFU TMPRSS6 (11731388_a_at) / Fold change /veh TMPRSS6 (11731388_a_at) / RFU KRTAP10-2 (11738614_at) / Fold change /veh KRTAP10-2 (11738614_at) / RFU ARHGAP8 /// PRR5-ARHGAP8 (11727945_x_at) / Fold change /veh ARHGAP8 /// PRR5-ARHGAP8 (11727945_x_at) / RFU KRTAP5-7 /// NADSYN1 (11734609_at) / Fold change /veh KRTAP5-7 /// NADSYN1 (11734609_at) / RFU RASL12 (11751679_a_at) / Fold change /veh RASL12 (11751679_a_at) / RFU CDKN2B (11736163_a_at) / Fold change /veh CDKN2B (11736163_a_at) / RFU PRF1 (11729649_at) / Fold change /veh PRF1 (11729649_at) / RFU, ZNF638 /// ZNF638-IT1 / Fold change vs veh, ZNF638 /// ZNF638-IT1 / RFU, PANK3 / Fold change vs veh, PANK3 / RFU, SH3YL1 / Fold change vs veh, SH3YL1 / RFU, ZEB2 / Fold change vs veh, ZEB2 / RFU, NRIP1 / Fold change vs veh, NRIP1 / RFU, PTTG1IP / Fold change vs veh, PTTG1IP / RFU, CAPN2 / Fold change vs veh, CAPN2 / RFU, MED14 / Fold change vs veh, MED14 / RFU, SNORA58 / Fold change vs veh, SNORA58 / RFU, C1orf63 / Fold change vs veh, C1orf63 / RFU, LRRFIP1 / Fold change vs veh, LRRFIP1 / RFU, NDUFAF7 / Fold change vs veh, NDUFAF7 / RFU, SLC12A2 / Fold change vs veh, SLC12A2 / RFU, IBTK / Fold change vs veh, IBTK / RFU, ESF1 / Fold change vs veh, ESF1 / Fold change vs veh, TMEM50B / RFU, TAOK1 / Fold change vs veh, TAOK1 / RFU, ACBD3 / Fold change vs veh, ACBD3 / RFU, TMA16 / Fold change vs veh, TMA16 / RFU, RWDD3 / Fold change vs veh, RWDD3 / RFU, BCAT1 / Fold change vs veh, BCAT1 / RFU, EDEM3 / Fold change vs veh, EDEM3 / RFU, TMEM33 / Fold change vs veh, TMEM33 / RFU, WDR75 / Fold change vs veh, WDR75 / RFU, AHCTF1 / Fold change vs veh, AHCTF1 / RFU, TFRC / Fold change vs veh, TFRC / RFU, ZDHHC17 / Fold change vs veh, ZDHHC17 / RFU, NOM1 / Fold change vs veh, NOM1 / RFU, ARL8B / Fold change vs veh, ARL8B / RFU, ZBTB11 / Fold change vs veh, ZBTB11 / RFU, TAMM41 / Fold change vs veh, TAMM41 / RFU, KIAA1704 /// LOC100996395 / Fold change vs veh, KIAA1704 /// LOC100996395 / RFU, ING1 / Fold change vs veh, ING1 / RFU, TRMT61B / Fold change vs veh, TRMT61B / RFU, FUBP3 / Fold change vs veh, FUBP3 / RFU, TP53 / Fold change vs veh, TP53 / RFU, TNKS2 / Fold change vs veh, TNKS2 / RFU, ZFP14 / Fold change vs veh, ZFP14 / RFU, ACTR2 / Fold change vs veh, ACTR2 / RFU, PPP3R1 / Fold change vs veh, PPP3R1 / RFU, PIK3R1 / Fold change vs veh, PIK3R1 / RFU, HNRNPA1 / Fold change vs veh, HNRNPA1 / RFU, RNF170 / Fold change vs veh, RNF170 / RFU, ZNF28 / Fold change vs veh, ZNF28 / RFU, RNGTT / Fold change vs veh, RNGTT / RFU, OGT / Fold change vs veh, OGT / RFU, BRD1 / Fold change vs veh, BRD1 / RFU, MARS / Fold change vs veh, MARS / RFU, ZNF655 / Fold change vs veh, ZNF655 / RFU, FAHD1 / Fold change vs veh, FAHD1 / RFU, BDP1 / Fold change vs veh, BDP1 / RFU, LRRCC1 / Fold change vs veh, LRRCC1 / RFU, ARID1A / Fold change vs veh, ARID1A / RFU, ZNF146 / Fold change vs veh, ZNF146 / RFU, ZNF330 / Fold change vs veh, ZNF330 / RFU, GPN3 / Fold change vs veh, GPN3 / RFU, C9orf123 / Fold change vs veh, C9orf123 / RFU, N4BP2L2 / Fold change vs veh, N4BP2L2 / RFU, ARFIP1 / Fold change vs veh, ARFIP1 / RFU, FAM179B / Fold change vs veh, FAM179B / RFU, BCL10 / Fold change vs veh, BCL10 / RFU, UHRF1BP1L / Fold change vs veh, UHRF1BP1L / RFU, BET1 / Fold change vs veh, BET1 / RFU, CNOT2 / Fold change vs veh, CNOT2 / RFU, ZNF268 / Fold change vs veh, ZNF268 / Fold change vs veh, ZNF507 / RFU, DGCR2 / Fold change vs veh, DGCR2 / RFU, WDSUB1 / Fold change vs veh, WDSUB1 / Fold change vs veh, HSP90B1 /// MIR3652 / RFU, ADSS / Fold change vs veh, ADSS / RFU, GK / Fold change vs veh, GK / RFU, ZNF148 / Fold change vs veh, ZNF148 / RFU, TAF9 / Fold change vs veh, TAF9 / RFU, SLC1A5 / Fold change vs veh, SLC1A5 / RFU, SLMO2 / Fold change vs veh, SLMO2 / RFU, ABCC4 / Fold change vs veh, ABCC4 / RFU, LOC101060439 /// RAP1B / Fold change vs veh, LOC101060439 /// RAP1B / RFU, RFX7 / Fold change vs veh, RFX7 / RFU, GTPBP10 / Fold change vs veh, GTPBP10 / RFU, CNEP1R1 / Fold change vs veh, CNEP1R1 / RFU, BIVM-ERCC5 /// ERCC5 / Fold change vs veh, BIVM-ERCC5 /// ERCC5 / RFU, ILF3 / Fold change vs veh, ILF3 / RFU 11762660_at / Fold change /veh 11762660_at / RFU VCAN (11757783_s_at) / Fold change /veh VCAN (11757783_s_at) / RFU DDX43 (11728927_at) / Fold change /veh DDX43 (11728927_at) / RFU KRT8 (11758188_x_at) / Fold change /veh KRT8 (11758188_x_at) / RFU NKD1 (11759106_at) / Fold change /veh NKD1 (11759106_at) / RFU SRD5A1 (11742802_a_at) / Fold change /veh SRD5A1 (11742802_a_at) / RFU TPSAB1 /// TPSB2 (11721975_s_at) / Fold change /veh TPSAB1 /// TPSB2 (11721975_s_at) / RFU GSTM3 (11746129_a_at) / Fold change /veh GSTM3 (11746129_a_at) / RFU IL23R (11737362_x_at) / Fold change /veh IL23R (11737362_x_at) / RFU TMEM51 (11727254_a_at) / Fold change /veh TMEM51 (11727254_a_at) / RFU PIWIL2 (11732686_x_at) / Fold change /veh PIWIL2 (11732686_x_at) / RFU ORM1 (11744905_x_at) / Fold change /veh ORM1 (11744905_x_at) / RFU CCDC152 (11743942_at) / Fold change /veh CCDC152 (11743942_at) / RFU ECM1 (11717891_a_at) / Fold change /veh ECM1 (11717891_a_at) / RFU IL23R (11748794_a_at) / Fold change /veh IL23R (11748794_a_at) / RFU TNFAIP8L3 (11732012_x_at) / Fold change /veh TNFAIP8L3 (11732012_x_at) / RFU MBOAT4 (11741988_at) / Fold change /veh MBOAT4 (11741988_at) / RFU 11764193_at / Fold change /veh 11764193_at / RFU TMEM53 (11763286_at) / Fold change /veh TMEM53 (11763286_at) / RFU MAGEB2 (11727129_at) / Fold change /veh MAGEB2 (11727129_at) / RFU TMEM200A (11744735_a_at) / Fold change /veh TMEM200A (11744735_a_at) / RFU CCDC152 (11751479_a_at) / Fold change /veh CCDC152 (11751479_a_at) / RFU FAM211A (11726209_a_at) / Fold change /veh FAM211A (11726209_a_at) / RFU RGS16 (11746705_a_at) / Fold change /veh RGS16 (11746705_a_at) / RFU VCAN (11755009_s_at) / Fold change /veh VCAN (11755009_s_at) / RFU RHOB (11743442_s_at) / Fold change /veh RHOB (11743442_s_at) / RFU RGS16 (11720943_a_at) / Fold change /veh RGS16 (11720943_a_at) / RFU RGS16 (11720944_at) / Fold change /veh RGS16 (11720944_at) / RFU, VPS4B / Fold change vs veh, VPS4B / RFU, CREB1 / Fold change vs veh, CREB1 / RFU, DNAJC13 / Fold change vs veh, DNAJC13 / RFU, GNAQ / Fold change vs veh, GNAQ / RFU, CDK5R1 / Fold change vs veh, CDK5R1 / RFU, ZRANB3 / Fold change vs veh, ZRANB3 / RFU, CUL4A / Fold change vs veh, CUL4A / RFU, CCNY / Fold change vs veh, CCNY / RFU, UFL1 / Fold change vs veh, UFL1 / RFU, COG3 / Fold change vs veh, COG3 / RFU, DIAPH2 / Fold change vs veh, DIAPH2 / RFU, SKA2 / Fold change vs veh, SKA2 / RFU, AFF3 / Fold change vs veh, AFF3 / RFU, LMF1 / Fold change vs veh, LMF1 / RFU, IPO11 / Fold change vs veh, IPO11 / RFU, DFFB / Fold change vs veh, DFFB / RFU, FOXP1 / Fold change vs veh, FOXP1 / RFU, CARD8 / Fold change vs veh, CARD8 / RFU, STRN3 / Fold change vs veh, STRN3 / RFU, ADK / Fold change vs veh, ADK / RFU, RASSF2 / Fold change vs veh, RASSF2 / RFU, WIPF1 / Fold change vs veh, WIPF1 / RFU, LARP1B / Fold change vs veh, LARP1B / RFU, RASA1 / Fold change vs veh, RASA1 / RFU, RB1 / Fold change vs veh, RB1 / RFU, PPFIA1 / Fold change vs veh, PPFIA1 / RFU, MAT2A / Fold change vs veh, MAT2A / RFU, CCT5 / Fold change vs veh, CCT5 / RFU, WDR92 / Fold change vs veh, WDR92 / RFU, CUX1 / Fold change vs veh, CUX1 / RFU, TTC7A / Fold change vs veh, TTC7A / RFU, TMEM135 / Fold change vs veh, TMEM135 / RFU, DEPTOR / Fold change vs veh, DEPTOR / RFU, CPM / Fold change vs veh, CPM / RFU, DNAJB6 / Fold change vs veh, DNAJB6 / RFU, CACNA2D3 / Fold change vs veh, CACNA2D3 / RFU, DTX4 / Fold change vs veh, DTX4 / RFU, TFCP2 / Fold change vs veh, TFCP2 / RFU, GMCL1 /// GMCL1P1 / Fold change vs veh, GMCL1 /// GMCL1P1 / RFU, AEBP2 / Fold change vs veh, AEBP2 / RFU, SNHG1 /// SNORD22 /// SNORD25 /// SNORD26 /// SNORD27 /// SNORD28 /// SNORD29 /// SNORD31 / Fold change vs veh, SNHG1 /// SNORD22 /// SNORD25 /// SNORD26 /// SNORD27 /// SNORD28 /// SNORD29 /// SNORD31 / Fold change (Aza/veh), C12orf56 (ProbeSet 11735607_a_at) / Fold change (ACY-1035/veh), C12orf56 (ProbeSet 11735607_a_at) / Fold change (Aza/veh), FGFR1OP (ProbeSet 11751329_s_at) / Fold change (ACY-1035/veh), FGFR1OP (ProbeSet 11751329_s_at) / Fold change (Aza/veh), VPS36 (ProbeSet 11739960_a_at) / Fold change (ACY-1035/veh), VPS36 (ProbeSet 11739960_a_at) / RFU SYPL1 (11715823_x_at) / Fold change /veh SYPL1 (11715823_x_at) / RFU IGFBP7 (11715501_s_at) / Fold change /veh IGFBP7 (11715501_s_at) / RFU REEP3 (11722064_at) / Fold change /veh REEP3 (11722064_at) / RFU IGLL1 (11728026_x_at) / Fold change /veh IGLL1 (11728026_x_at): dose or concentration left out as unconfirmed. Type of test: cell-based, human. Conditions: ProbeSet 11759095_at; LIST D.

Take `Nc1ccc(-c2cccs2)cc1NC(=O)c1ccc2c(c1)cc(C1CC1)n2CCN1CCOCC1` [ACY-1035]: the “Fold change vs veh, GNAQ” value was 0.95.
